Data published in PubChem BioAssay AID248 (DTP/NCI, 2004).
“And” between values parts separate entries of the source, which are not always exact repeats. Equal entries are not always repeated. Inconclusive results and toxic doses are left out. No stated cut-off is given here; in the data, active means T/C of 150% or more; inactive means T/C below 125%.

System: L1210 leukemia ip in BDF1 mice, survival T/C
Assay: NCI In Vivo Anticancer Drug Screen. Data for tumor model L1210 Leukemia (intraperitoneal) in B6D2F1 (BDF1) mice
Conditions: higher = longer survival
Method in brief: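 Transplantable tumor model; survival measured in treated vs vehicle control mice. Value = treated/control.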

Measured: T/C

CC[C@](O)(C(=O)O)c1cc2n(c(=O)c1CO)Cc1cc3ccccc3nc1-2
inactive: endpoint: mean survival time, dose: 0.12 mg/kg/injection, schedule: Q#A X Z (ip), vehicle: saline 106 % of control | endpoint: mean survival time, dose: 0.18 mg/kg/injection, schedule: Q01DX009 (ip), vehicle: saline 105 % of control and 108 % of control | endpoint: mean survival time, dose: 0.25 mg/kg/injection, schedule: Q01DX006 (iv), vehicle: saline 107 % of control | endpoint: mean survival time, dose: 0.25 mg/kg/injection, schedule: Q01DX009 (ip), vehicle: saline 98 % of control | endpoint: mean survival time, dose: 0.25 mg/kg/injection, schedule: Q01DX010 (ip), vehicle: saline 117 % of control | endpoint: mean survival time, dose: 0.25 mg/kg/injection, schedule: Q01DX Z (im), vehicle: saline 107 % of control | endpoint: mean survival time, dose: 0.25 mg/kg/injection, schedule: Q01DX Z (sc), vehicle: saline 107 % of control | endpoint: mean survival time, dose: 0.25 mg/kg/injection, schedule: Q## X Z (ip), vehicle: saline 97 % of control | endpoint: mean survival time, dose: 0.25 mg/kg/injection, schedule: Q#A X Z (ip), vehicle: saline 114 % of control | endpoint: mean survival time, dose: 0.35 mg/kg/injection, schedule: Q01DX009 (ip), vehicle: saline 106 % of control and 113 % of control | endpoint: mean survival time, dose: 0.5 mg/kg/injection, schedule: Q01DX006 (iv), vehicle: saline 103 % of control | endpoint: mean survival time, dose: 0.5 mg/kg/injection, schedule: Q01DX009 (ip), vehicle: saline 104 % of control and 112 % of control | endpoint: mean survival time, dose: 0.5 mg/kg/injection, schedule: Q01DX009 (oral), vehicle: water 97 % of control | endpoint: mean survival time, dose: 0.5 mg/kg/injection, schedule: Q01DX Z (im), vehicle: saline 108 % of control | endpoint: mean survival time, dose: 0.5 mg/kg/injection, schedule: Q01DX Z (ip), vehicle: saline 122 % of control | endpoint: mean survival time, dose: 0.5 mg/kg/injection, schedule: Q01DX Z (oral), vehicle: saline 105 % of control | endpoint: mean survival time, dose: 0.5 mg/kg/injection, schedule: Q01DX Z (sc), vehicle: saline 107 % of control | endpoint: mean survival time, dose: 0.5 mg/kg/injection, schedule: Q## X Z (ip), vehicle: saline 103 % of control | endpoint: mean survival time, dose: 0.7 mg/kg/injection, schedule: Q01DX009 (ip), vehicle: saline 106 % of control and 108 % of control | endpoint: mean survival time, dose: 0.75 mg/kg/injection, schedule: Q03DX Z (ip), vehicle: saline 101 % of control | endpoint: mean survival time, dose: 1.0 mg/kg/injection, schedule: Q01DX006 (iv), vehicle: saline 111 % of control | endpoint: mean survival time, dose: 1.0 mg/kg/injection, schedule: Q01DX009 (ip), vehicle: saline 111 % of control and 112 % of control | endpoint: mean survival time, dose: 1.0 mg/kg/injection, schedule: Q01DX009 (oral), vehicle: water 113 % of control | endpoint: mean survival time, dose: 1.0 mg/kg/injection, schedule: Q01DX Z (im), vehicle: saline 113 % of control | endpoint: mean survival time, dose: 1.0 mg/kg/injection, schedule: Q01DX Z (oral), vehicle: saline 117 % of control | endpoint: mean survival time, dose: 1.0 mg/kg/injection, schedule: Q01DX Z (sc), vehicle: saline 113 % of control | endpoint: mean survival time, dose: 1.0 mg/kg/injection, schedule: Q## X Z (ip), vehicle: saline 114 % of control | endpoint: mean survival time, dose: 1.3 mg/kg/injection, schedule: Q## X008 (ip), vehicle: saline 102 % of control | endpoint: mean survival time, dose: 1.5 mg/kg/injection, schedule: Q03DX Z (ip), vehicle: saline 109 % of control | endpoint: mean survival time, dose: 2.0 mg/kg/injection, schedule: Q01DX001 (ip), vehicle: saline 106 % of control and 113 % of control (2×) | endpoint: mean survival time, dose: 2.0 mg/kg/injection, schedule: Q01DX006 (iv), vehicle: saline 114 % of control and 122 % of control | endpoint: mean survival time, dose: 2.0 mg/kg/injection, schedule: Q01DX010 (ip), vehicle: saline 110 % of control | endpoint: mean survival time, dose: 2.0 mg/kg/injection, schedule: Q01DX010 (oral), vehicle: saline 97 % of control | endpoint: mean survival time, dose: 2.0 mg/kg/injection, schedule: Q01DX Z (im), vehicle: saline 116 % of control | endpoint: mean survival time, dose: 2.0 mg/kg/injection, schedule: Q01DX Z (sc), vehicle: saline 114 % of control and 120 % of control | endpoint: mean survival time, dose: 2.0 mg/kg/injection, schedule: Q07DX Z (ip), vehicle: saline 109 % of control | endpoint: mean survival time, dose: 2.5 mg/kg/injection, schedule: Q01DX001 (oral), vehicle: water 111 % of control | endpoint: mean survival time, dose: 2.5 mg/kg/injection, schedule: Q04DX002 (ip), vehicle: saline 100 % of control and 108 % of control | endpoint: mean survival time, dose: 2.5 mg/kg/injection, schedule: Q04DX003 (ip), vehicle: saline 110 % of control | endpoint: mean survival time, dose: 2.5 mg/kg/injection, schedule: Q## X003 (ip), vehicle: saline 105 % of control and 109 % of control | endpoint: mean survival time, dose: 2.5 mg/kg/injection, schedule: Q## X003 (oral), vehicle: saline 107 % of control | endpoint: mean survival time, dose: 2.5 mg/kg/injection, schedule: Q## X003 (oral), vehicle: water 107 % of control | endpoint: mean survival time, dose: 2.5 mg/kg/injection, schedule: Q## X008 (ip), vehicle: saline 98 % of control | endpoint: mean survival time, dose: 2.6 mg/kg/injection, schedule: Q## X024 (ip), vehicle: saline 101 % of control | endpoint: mean survival time, dose: 2.6 mg/kg/injection, schedule: Q## X024 (oral), vehicle: water 100 % of control | endpoint: mean survival time, dose: 3.0 mg/kg/injection, schedule: Q01DX Z (sc), vehicle: saline 120 % of control | endpoint: mean survival time, dose: 3.0 mg/kg/injection, schedule: Q03DX Z (ip), vehicle: saline 118 % of control | endpoint: mean survival time, dose: 4.0 mg/kg/injection, schedule: Q01DX001 (ip), vehicle: saline 105 % of control and 110 % of control and 116 % of control | endpoint: mean survival time, dose: 4.0 mg/kg/injection, schedule: Q01DX009 (oral), vehicle: water 120 % of control | endpoint: mean survival time, dose: 4.0 mg/kg/injection, schedule: Q01DX Z (ip), vehicle: saline 97 % of control and 116 % of control | endpoint: mean survival time, dose: 4.0 mg/kg/injection, schedule: Q01DX Z (oral), vehicle: saline 101 % of control | endpoint: mean survival time, dose: 4.5 mg/kg/injection, schedule: Q01DX006 (iv), vehicle: saline 122 % of control | endpoint: mean survival time, dose: 4.5 mg/kg/injection, schedule: Q01DX Z (im), vehicle: saline 93 % of control | endpoint: mean survival time, dose: 5.0 mg/kg/injection, schedule: Q01DX001 (oral), vehicle: water 115 % of control | endpoint: mean survival time, dose: 5.0 mg/kg/injection, schedule: Q04DX002 (ip), vehicle: saline 110 % of control and 113 % of control | endpoint: mean survival time, dose: 5.0 mg/kg/injection, schedule: Q04DX003 (ip), vehicle: saline 116 % of control | endpoint: mean survival time, dose: 5.0 mg/kg/injection, schedule: Q04DX003 (ip), vehicle: water 118 % of control and 120 % of control | endpoint: mean survival time, dose: 5.0 mg/kg/injection, schedule: Q## X003 (ip), vehicle: saline 114 % of control | endpoint: mean survival time, dose: 5.0 mg/kg/injection, schedule: Q## X003 (oral), vehicle: water 121 % of control | endpoint: mean survival time, dose: 5.0 mg/kg/injection, schedule: Q## X008 (ip), vehicle: saline 105 % of control | endpoint: mean survival time, dose: 5.0 mg/kg/injection, schedule: Q## X024 (ip), vehicle: saline 120 % of control | endpoint: mean survival time, dose: 6.0 mg/kg/injection, schedule: Q01DX001 (ip), vehicle: saline 110 % of control | endpoint: mean survival time, dose: 6.5 mg/kg/injection, schedule: Q01DX006 (iv), vehicle: saline 112 % of control | endpoint: mean survival time, dose: 6.5 mg/kg/injection, schedule: Q01DX Z (sc), vehicle: saline 105 % of control | endpoint: mean survival time, dose: 8.0 mg/kg/injection, schedule: Q01DX001 (ip), vehicle: saline 105 % of control and 115 % of control | endpoint: mean survival time, dose: 8.0 mg/kg/injection, schedule: Q01DX009 (ip), vehicle: saline 120 % of control | endpoint: mean survival time, dose: 10.0 mg/kg/injection, schedule: Q01DX001 (ip), vehicle: saline 112 % of control | endpoint: mean survival time, dose: 10.0 mg/kg/injection, schedule: Q## X008 (ip), vehicle: saline 117 % of control | endpoint: mean survival time, dose: 10.0 mg/kg/injection, schedule: Q## X008 (oral), vehicle: water 121 % of control | endpoint: mean survival time, dose: 19.0 mg/kg/injection, schedule: Q03DX Z (ip), vehicle: saline 121 % of control | endpoint: mean survival time, dose: 50.0 mg/kg/injection, schedule: Q04DX003 (ip), vehicle: saline 105 % of control | endpoint: mean survival time, dose: 80.0 mg/kg/injection, schedule: Q04DX003 (ip), vehicle: saline 114 % of control | endpoint: mean survival time, dose: 160.0 mg/kg/injection, schedule: Q## X003 (ip), vehicle: saline 110 % of control | endpoint: mean survival time, dose: 125.0 micrograms/kg/injection, schedule: Q01DX Z (ip), vehicle: saline 111 % of control | endpoint: mean survival time, dose: 250.0 micrograms/kg/injection, schedule: Q01DX Z (ip), vehicle: saline 114 % of control | endpoint: median survival time, dose: 5.0 mg/kg/injection, schedule: Q04DX003 (ip), vehicle: saline 122 % of control | endpoint: median survival time, dose: 50.0 mg/kg/injection, schedule: Q01DX001 (ip), vehicle: saline 110 % of control and 119 % of control | endpoint: median survival time, dose: 83.3 mg/kg/injection, schedule: Q04DX003 (ip), vehicle: saline 110 % of control and 121 % of control | endpoint: median survival time, dose: 100.0 mg/kg/injection, schedule: Q04DX003 (ip), vehicle: saline 94 % of control and 116 % of control | endpoint: median survival time, dose: 148.0 mg/kg/injection, schedule: Q01DX001 (ip), vehicle: saline 115 % of control
